Data from publication doi:10.1101/2021.11.20.466133v3 (biorxiv, 2022).

How the values were obtained:
MsDisA [1] = molecular target: T1, MsDisA (Mycolicibacterium smegmatis, UniProt A0R564); settings: substrate inhibition by ATP; pH 7.5; 37 °C; 5 mM MgCl2
MsDisA [2] = molecular target: T1, MsDisA; assay: biochemical
MsPDE = MsPDE (Mycolicibacterium smegmatis, UniProt A0QVM9); assay: HPLC AMP formation, substrate inhibition model; type: biochemical; settings: substrate inhibition by c-di-AMP; pH 7.5; 5 mM MgCl2
MsPDE, sequence (A0QVM9 1-340): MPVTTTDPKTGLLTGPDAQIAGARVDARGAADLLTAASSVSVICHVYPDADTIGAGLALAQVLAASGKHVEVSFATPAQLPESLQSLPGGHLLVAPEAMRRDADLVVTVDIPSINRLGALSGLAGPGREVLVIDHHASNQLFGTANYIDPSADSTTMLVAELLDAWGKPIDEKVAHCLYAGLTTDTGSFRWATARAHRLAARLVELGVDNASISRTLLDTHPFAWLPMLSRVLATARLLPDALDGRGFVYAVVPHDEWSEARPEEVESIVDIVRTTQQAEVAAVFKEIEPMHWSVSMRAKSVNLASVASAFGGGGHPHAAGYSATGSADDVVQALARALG

T1 sequence (A0R564 whole entry): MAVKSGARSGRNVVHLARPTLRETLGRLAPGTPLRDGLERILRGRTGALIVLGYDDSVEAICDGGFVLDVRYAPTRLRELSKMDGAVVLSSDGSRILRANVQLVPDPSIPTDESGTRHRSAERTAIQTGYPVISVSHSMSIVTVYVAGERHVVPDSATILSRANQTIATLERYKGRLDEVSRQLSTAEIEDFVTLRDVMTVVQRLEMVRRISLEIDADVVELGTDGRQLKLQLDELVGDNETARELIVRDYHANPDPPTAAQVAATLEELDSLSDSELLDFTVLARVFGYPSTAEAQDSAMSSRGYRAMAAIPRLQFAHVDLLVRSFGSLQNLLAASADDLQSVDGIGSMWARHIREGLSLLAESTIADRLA

Compound	Ki (MsDisA [1])	Kd (MsDisA [2])	Ki (MsPDE)
Nc1ncnc2c1ncn2[C@@H]1O[C@H](COP(=O)(O)OP(=O)(O)OP(=O)(O)O)[C@@H](O)[C@H]1O [ATP]	1430 µM	2.4 µM	
Nc1ncnc2c1ncn2[C@@H]1O[C@@H]2COP(=O)(O)O[C@H]3[C@@H](O)[C@H](n4cnc5c(N)ncnc54)O[C@@H]3COP(=O)(O)O[C@H]2[C@H]1O [c-di-AMP]			1120 µM
